From the supplement of paper PMC12137928
Counter-ions that a name gives are not always drawn.

System: HCT116
Conditions: 72 h
Outline: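 HCT116 cells went into 1536-well plates at 250 per well. CellTiter-Glo luminescence was expressed relative to vehicle (0%) and positive control (-100%) and then pattern-corrected. Both IC50 and maximal efficacy were taken from four-parameter Hill fits.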

Compound | IC50 cell viability (ICRF193 0 nM) | IC50 cell viability (ICRF193 200 nM)
CCN1C(=O)NC(c2ccccc2)C1=O (configuration not stated) [Ethotoin] | > 45.8 µM | > 45.8 µM
CCOc1ccc2c(c1)C(C)=CC(C)(C)N2 [Ethoxyquin] | > 45.8 µM | > 45.8 µM
CCOc1ccc2nc(S(N)(=O)=O)sc2c1 [Ethoxzolamide] | > 45.8 µM | > 45.8 µM
CCOC(=O)c1cccc(N)c1 [Ethyl 3-aminobenzoate methanesulfonic acid salt] | > 45.8 µM | > 45.8 µM
CCCCC/C=C\C/C=C\CCCCCCCC(=O)OCC [Ethyl linoleate] | > 45.8 µM | > 45.8 µM
CCOC(=O)c1ccccc1O [Ethyl salicylate] | > 45.8 µM | > 45.8 µM
CC[C@]1(O)CC[C@H]2[C@@H]3CCC4=CCCC[C@@H]4[C@H]3CC[C@@]21C [Ethylestrenol] | > 45.8 µM | > 45.8 µM
CCOc1ccc2c3c1O[C@H]1[C@@H](O)C=C[C@H]4[C@@H](C2)N(C)CC[C@@]341 [Ethylmorphine] | > 45.8 µM | > 45.8 µM
CCOC(=O)c1ccc(O)cc1 [Ethylparaben] | > 45.8 µM | > 45.8 µM
CCCN(CC)C(CC)C(=O)Nc1c(C)cccc1C (configuration not stated) [Etidocaine] | > 45.8 µM | > 45.8 µM
CC(O)(P(=O)(O)O)P(=O)(O)O [Etidronate disodium] | > 45.8 µM | > 45.8 µM
CCC(CN)=C(c1ccccc1)c1ccccc1 [Etifelmine hydrochloride] | > 45.8 µM | > 45.8 µM
CCc1cccc(CC)c1NC(=O)CN(CC(=O)O)CC(=O)O [Etifenin] | > 45.8 µM | > 45.8 µM
CCNCC(O)c1cccc(O)c1 (configuration not stated) [Etilefrine hydrochloride] | > 45.8 µM | > 45.8 µM
CCc1cc2c(s1)-n1c(C)nnc1CN=C2c1ccccc1Cl [Etizolam] | > 45.8 µM | > 45.8 µM
CCc1cccc2c3c([nH]c12)C(CC)(CC(=O)O)OCC3 (configuration not stated) [Etodolac] | > 45.8 µM | > 45.8 µM
CCOC(=O)c1cncn1[C@H](C)c1ccccc1 [Etomidate] | > 45.8 µM | > 45.8 µM
CCN1C(=O)c2ccccc2C1Nc1ccc(OCCN2CCCCC2)cc1 (configuration not stated) [Etomidoline] | > 45.8 µM | > 45.8 µM
C#C[C@]1(O)CC[C@H]2[C@@H]3CCC4=CC(=O)CC[C@@H]4[C@H]3C(=C)C[C@@]21CC [Etonogestrel] | > 45.8 µM | > 45.8 µM
Cc1ccc(-c2ncc(Cl)cc2-c2ccc(S(C)(=O)=O)cc2)cn1 [Etoricoxib] | > 45.8 µM | > 45.8 µM
CCOC(=O)/C=C(C)/C=C/C=C(C)/C=C/c1c(C)cc(OC)c(C)c1C [Etretinate] | > 45.8 µM | > 45.8 µM
C=CCc1ccc(O)c(OC)c1 [Eugenol] | > 45.8 µM | > 45.8 µM

Compound | IC50 cell viability (ICRF193 0 nM) | IC50 cell viability (ICRF193 200 nM)
CO[C@H]1C[C@@H]2CC[C@@H](C)[C@@](O)(O2)C(=O)C(=O)N2CCCC[C@H]2C(=O)O[C@H]([C@H](C)C[C@@H]2CC[C@@H](OCCO)[C@H](OC)C2)CC(=O)[C@H](C)/C=C(\C)[C@@H](O)[C@@H](OC)C(=O)[C@H](C)C[C@H](C)/C=C/C=C/C=C/1C [Everolimus] | > 45.8 µM | > 45.8 µM
CCCCCCOc1ccccc1C(N)=O [Exalamide] | > 45.8 µM | > 45.8 µM
C/C(=N\O)C(C)NCC(C)(C)CNC(C)/C(C)=N/O (configuration not stated) [Exametazime] | > 45.8 µM | > 45.8 µM
C=C1C[C@@H]2[C@H](CC[C@]3(C)C(=O)CC[C@@H]23)[C@@]2(C)C=CC(=O)C=C12 [Exemestane] | > 45.8 µM | > 45.8 µM
O=C1[C@H](CC[C@H](O)c2ccc(F)cc2)[C@@H](c2ccc(O)cc2)N1c1ccc(F)cc1 [Ezetimibe] | > 45.8 µM | > 45.8 µM
CC(C)C(=O)Oc1ccc(CO)cc1[C@H](CCN(C(C)C)C(C)C)c1ccccc1 [FESOTERODINE FUMARATE] | > 45.8 µM | > 45.8 µM
CC1(C)OC(=O)C(OCC2CC2)=C1c1ccc(S(C)(=O)=O)cc1 [FIROCOXIB] | > 45.8 µM | > 45.8 µM
O=c1[nH]c2ccccc2n1CCN1CCN(c2cccc(C(F)(F)F)c2)CC1 [FLIBANSERIN] | > 45.8 µM | > 45.8 µM
CCCCCCCCCC(=O)OCCN1CCN(CC/C=C2\c3ccccc3Sc3ccc(C(F)(F)F)cc32)CC1 [FLUPENTIXOL DECANOATE] | > 45.8 µM | > 45.8 µM
C[C@@H]1O[C@@H]1P(=O)(O)O [FOSFOMYCIN] | > 45.8 µM | > 45.8 µM
Cc1[nH]cnc1C[C@H]1CCc2c(C)c3ccccc3n2C1=O [Fabesetron] | > 45.8 µM | > 45.8 µM
CC(=O)OCC(CCn1cnc2cnc(N)nc21)COC(C)=O [Famciclovir] | > 45.8 µM | > 45.8 µM
NC(N)=Nc1nc(CSCC/C(N)=N/S(N)(=O)=O)cs1 [Famotidine] | > 45.8 µM | > 45.8 µM
COP(=S)(OC)Oc1ccc(S(=O)(=O)N(C)C)cc1 [Famphur] | > 45.8 µM | > 45.8 µM
O=C1CC[C@H](C(=O)N2CCCCC2)N1 [Fasoracetam] | > 45.8 µM | > 45.8 µM
O=S(=O)(c1cccc2cnccc12)N1CCCNCC1 [Fasudil] | > 45.8 µM | > 45.8 µM
NC(=O)c1nc(F)cnc1O [Favipiravir] | > 45.8 µM | > 45.8 µM
COCC(=O)Nc1cc(Sc2ccccc2)ccc1N=C(NC(=O)OC)NC(=O)OC [Febantel] | > 45.8 µM | > 45.8 µM
Cc1nc(-c2ccc(OCC(C)C)c(C#N)c2)sc1C(=O)O [Febuxostat] | > 45.8 µM | > 45.8 µM
NC(=O)OCC(COC(N)=O)c1ccccc1 [Felbamate] | > 45.8 µM | > 45.8 µM
NCCCC[C@H](NC(=O)[C@@H]1CCCN1C(=O)[C@@H]1CSSC[C@H](N)C(=O)N[C@@H](Cc2ccccc2)C(=O)N[C@@H](Cc2ccccc2)C(=O)N[C@@H](CCC(N)=O)C(=O)N[C@@H](CC(N)=O)C(=O)N1)C(=O)NCC(N)=O [Felypressin] | > 45.8 µM | > 45.8 µM
COC(=O)Nc1nc2cc(Sc3ccccc3)ccc2[nH]1 [Fenbendazole] | > 45.8 µM | > 45.8 µM

Compound | IC50 cell viability (ICRF193 0 nM) | IC50 cell viability (ICRF193 200 nM)
O=C(O)CCC(=O)c1ccc(-c2ccccc2)cc1 [Fenbufen] | > 45.8 µM | > 45.8 µM
CCC(C(=O)OCCN1CCOC(c2ccccc2)C1C)c1ccccc1 (configuration not stated) [Fenbutrazate] | > 45.8 µM | > 45.8 µM
COP(=S)(OC)Oc1cc(Cl)c(Cl)cc1Cl [Fenchlorphos] | > 45.8 µM | > 45.8 µM
CCCCC(O)c1ccccc1 (configuration not stated) [Fenipentol] | > 45.8 µM | > 45.8 µM
CC(C)OC(=O)C(C)(C)Oc1ccc(C(=O)c2ccc(Cl)cc2)cc1 [Fenofibrate] | > 45.8 µM | > 45.8 µM
Oc1ccc(C2CNCCc3c2cc(O)c(O)c3Cl)cc1 (configuration not stated) [Fenoldopam] | > 45.8 µM | > 45.8 µM
CC(C(=O)O)c1cccc(Oc2ccccc2)c1 (configuration not stated) [Fenoprofen calcium salt dihydrate] | > 45.8 µM | > 45.8 µM
CC(Cc1ccc(O)cc1)NCC(O)c1cc(O)cc(O)c1 (configuration not stated) [Fenoterol hydrobromide] | > 45.8 µM | > 45.8 µM
COP(=S)(OC)Oc1ccc(SC)c(C)c1 [Fenthion] | > 45.8 µM | > 45.8 µM
O=C(O)Cc1sc(-c2ccccc2)nc1-c1ccc(Cl)cc1 [Fentiazac] | > 45.8 µM | > 45.8 µM
CC(C)=CCC1C(=O)N(c2ccccc2)N(c2ccccc2)C1=O [Feprazone] | > 45.8 µM | > 45.8 µM
CC(C)(C(=O)O)c1ccc(C(O)CCCN2CCC(C(O)(c3ccccc3)c3ccccc3)CC2)cc1 (configuration not stated) [Fexofenadine hydrochloride] | > 45.8 µM | > 45.8 µM
Cc1ccc(/C=N/n2c(-c3ccccc3)csc2=S)cc1 [Fezatione] | > 45.8 µM | > 45.8 µM
NC(=O)[C@@H]1C[C@]2(NC(=O)NC2=O)c2cc(F)ccc2O1 [Fidarestat] | > 45.8 µM | > 45.8 µM
CC(C)(C)NC(=O)[C@H]1CC[C@H]2[C@@H]3CC[C@H]4NC(=O)C=C[C@]4(C)[C@H]3CC[C@]12C [Finasteride] | > 45.8 µM | > 45.8 µM
N#Cc1nn(-c2c(Cl)cc(C(F)(F)F)cc2Cl)c(N)c1[S+]([O-])C(F)(F)F (configuration not stated) [Fipronil] | > 45.8 µM | > 45.8 µM
Cc1cc2nc3c(=O)[nH]c(=O)nc-3n(C[C@H](O)[C@H](O)[C@H](O)COP(=O)(O)OP(=O)(O)OC[C@H]3O[C@@H](n4cnc5c(N)ncnc54)[C@H](O)[C@@H]3O)c2cc1C [Flavin adenine dinucleotide disodium salt hydrate] | > 45.8 µM | > 45.8 µM
Cc1c(-c2ccccc2)oc2c(C(=O)OCCN3CCCCC3)cccc2c1=O [Flavoxate hydrochloride] | > 45.8 µM | > 45.8 µM
O=C(NCC1CCCCN1)c1cc(OCC(F)(F)F)ccc1OCC(F)(F)F (configuration not stated) [Flecainide] | > 45.8 µM | > 45.8 µM
CN1CCN(c2c(F)cc3c(=O)c(C(=O)O)cn(CCF)c3c2F)CC1 [Fleroxacin] | > 45.8 µM | > 45.8 µM
O=C(OCC(O)CO)c1ccccc1Nc1ccnc2c(C(F)(F)F)cccc12 (configuration not stated) [Floctafenine] | > 45.8 µM | > 45.8 µM
CO[C@@]1(NC(=O)CSC(F)F)C(=O)N2C(C(=O)O)=C(CSc3nnnn3CCO)CO[C@@H]21 [Flomoxef] | > 45.8 µM | > 45.8 µM
